Data on four molecules can be found in patent US20220090021A1, “IN VITRO HUMAN BLOOD BRAIN BARRIER” (Massachusetts Institute of Technology, priority 2019, published 2022).

One data set deals with APOE. The data set is described as follows: APOE gene expression in iPSC-derived pericytes after two weeks of CaN inhibition (qRT-PCR). In kind it is cell-based, human. As to the method:
Total RNA was isolated using Trizol and zymogen RNA-direct spin column treated with DNAse on column of 30 minutes prior to washing and elution. For RT-PCRs, 500 ng of total RNA was reverse transcribed into cDNA with iScript (BioRad). Expression was quantified by SsoFast EvaGreen supermix (BioRad). For RNAsequencing, extracted total RNA was subject to QC using an Advanced Analytical-fragment Analyzer before library preparation using Illumina Neoprep stranded RNA-seq library preparation kit. Libraries were pooled for sequencing using Illumina HiSeq2000 or NextSeq500 platforms at the MIT Biomicro Center. The raw fastq data were aligned to human hg19 assembly using STAR 2.4.0 RNA-seq aligner. Mapped RNA-seq reads covering the edited APOE3/4 site were used to validate data genotypes. Gene raw counts were generated from the mapped data using feature Counts tool. The mapped reads were also processed by Cufflinks2.2 with hg19 reference gene annotation to estimate transcript abundances. Gene differential expression test between APOE3 and APOE4 groups of each cell type was performed using Cuffdiff module with adjusted q-value <0.05 for statistical significance. Geometric method was chosen as the library normalization method for Cuffdiff. Color-coded scatterplots were used to visualize group FPKM values for differentially expressed genes and other genes.

Another data set concerns E3/3 iBBB. The data set is described as follows: Amyloid accumulation in E3/3 iBBB exposed to conditioned media from inhibitor-treated E4/4 pericytes. In kind it is cell-based, human. Conditions: media harvested from inhibitor-treated E4/4 pericytes, versus DMSO.
The test system of data set [1] is iBBB. The text has this:
To more fully assess the barrier properties of the iBBB we compared the paracellular permeability of molecules with molecular weights ranging from 0.1 to 80 kDa. […] To rule out the possibility that the reduced permeability of the iBBB was simply the result of additional layers of cells, we layered on top of BECs double the normal number of pericyte-only, astrocytes-only or a non-relevant cell type, mouse embryonic fibroblasts (MEFs).
The genotype distinction between APOE4/4 cells (isogenic) and APOE3/3 (parental) was assessed in terms of permeability of an iBBB membrane. FIG. 13A presents a schematic showing the iBBB with fluorescent molecules positioned on the Apical surface, which are then allowed to transition through the iBBB from the Apical surface to the Basolateral surface (FIG. 13B).

In data set [2] the test system is iBBB. The data set is described as follows: Amyloid (Aβ-FITC) accumulation in iBBB. In kind it is cell-based, human. Conditions: APOE3/3 iBBB; APOE raised to approximately 200 ng/ml, E3 or E4; labeled Aβ for 96 hours.
Description: (§1) Amyloid accumulation was determined using both neuronal cell conditioned media and 20 nM recombinant labeled Hilyte fluor 488 β-amyloid (1-40) (Anaspec, AS-60491-01) and β-amyloid (1-42) (Anaspec, AS-60479-01) resuspended in PBS. Aβ accumulation for each cell line and experimental permutation was determined from 2D cultures containing all three cells types containing same ratio of cells as 3D experiments. Total area positive for Aβ was divided by the total number of nuclei and normalized to experimental controls. At least four images for each biological replicate were analyzed and for each condition at least three biological replicates were employed. 2D quantifications were corroborated by 3D imaging and analysis.

Description for E3/3 iBBB: as §1
We then added 20 nM Aβ1-40/42-FITC to the cultures for an additional 48 hours after which we quantified the accumulation of AP-FITC for each condition.

`O=C1C=CC(=O)C2=C1C1c3ccccc3C2c2ccccc21` [INCA6]: the APOE expression entry with APOE (APOE4/4 pericytes, two weeks, CsA 2 μM, FK506 5 μM, INCA6 5 μM, qRT-PCR) is “significantly reduced”. Further, the “expression of APOE” value in the data set with APOE (E3/4 heterozygous pericytes from three individuals) was “significant reduction”. For the same molecule, in the data set on E3/3 iBBB, the amyloid accumulation result was “significantly reduced”. For the molecule “Aβ42-FITC: FITC-labeled amyloid-β 1-42 peptide”, the “permeability and accumulation on the Basolateral surface, APOE4/4 iBBB versus parental APOE3/3 iBBB” value in the data set with iBBB [1] was “greater permeability”. Turning to “recombinant human APOE protein: recombinant human APOE protein (E3 or E4) added to iBBB culture media”, the Aβ accumulation result in the data set on iBBB [2] is reported as “increase”. As to “transferrin: fluorescently labeled Transferrin (ThermoFisher T-13342), permeability tracer”, the “permeability and accumulation on the Basolateral surface, APOE4/4 iBBB versus parental APOE3/3 iBBB” value in the data set on iBBB [1] is on record as “greater permeability”.
